Results reported in patent US20250230226A1, “PLXDC1/PLXDC2 ACTIVATORS AND THEIR USE IN THE TREATMENT OF BLOOD VESSEL DISORDERS” (THE REGENTS OF THE UNIVERSITY OF CALIFORNIA, priority 2019, published 2025).

Legend:
tumor blood vessels = assay: Tumor animal model, bolus IV injection (FIG. 23-26); assay type: in vivo, mice; settings: bolus IV injection at day 0
Excerpt: Treatment was done at day 0 by bolus IV injection. A. Raw data of tumor growth curves of the mice in the control group. B. Raw data of tumor growth curves of the mice in the treatment group. C. Comparison of the combined growth data of the control group and the treatment group.
Pictures of the whole animals in the experiment described in FIG. 11 show tumor morphological and color changes on day 1 and day 3. Treatment was done at day 0. Tumors in the treatment groups becomes darker in color on day 1 due to the destruction of tumor blood vessels and accumulation of blood in the tumors. Tumors in the treatment groups start to become yellower in color on day 3, consistent with the onset of tumor necrosis due to the lack of tumor blood vessels.
FIG. 25A-B show tumor morphological changes on live animals due to the treatment by PLXDC1-activating compound. Pictures of the whole animals in the experiment described in FIG. 11 show tumor morphological and color changes on day 7. Treatment was done at day 0. While the tumors in the control group have grown to large sizes, tumors in the treatment groups have highly shrunk in size and become yellow in color.
FIG. 26A-B show morphological changes of dissected tumors due to the treatment by PLXDC1-activating compound. Pictures of the dissected tumors in the experiment described in FIG. 11 show tumor morphological and color changes on day 7. […]

PLXDC1 = molecular target: T1, PLXDC1 (Homo sapiens, UniProt Q8IUK5); assay: Gfi1b promotor luciferase receptor activation assay, PLXDC1-expressing cells (FIG. 18A, 19); assay type: cell-based; settings: compound treatments 1 day; basal activity defined as 1
T1 construct: expressed in transfected cells
T1 sequence (Q8IUK5 19-500): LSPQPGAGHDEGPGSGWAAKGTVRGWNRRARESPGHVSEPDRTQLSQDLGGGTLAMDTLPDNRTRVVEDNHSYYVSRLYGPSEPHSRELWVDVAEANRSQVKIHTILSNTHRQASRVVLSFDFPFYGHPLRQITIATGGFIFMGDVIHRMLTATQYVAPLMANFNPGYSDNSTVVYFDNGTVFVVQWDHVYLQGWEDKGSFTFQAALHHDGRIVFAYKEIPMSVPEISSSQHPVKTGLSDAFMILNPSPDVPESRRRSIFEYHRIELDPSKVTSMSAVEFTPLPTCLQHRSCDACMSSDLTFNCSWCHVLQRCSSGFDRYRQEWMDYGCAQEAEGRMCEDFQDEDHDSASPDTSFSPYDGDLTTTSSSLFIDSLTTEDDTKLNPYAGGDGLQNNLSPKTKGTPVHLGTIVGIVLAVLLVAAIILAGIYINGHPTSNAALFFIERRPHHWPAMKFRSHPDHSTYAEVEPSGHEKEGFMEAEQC
Excerpt: FIG. 18A-B show activation of PLXDC1 and PLXDC2 by small molecules. […] All compound treatments were done for 1 day. Basal promotor activity of the PLXDC1-expressing cells is defined as 1.
Basal promotor activity of the PLXDC1-expressing cells is defined as 1. The basal activity of PLXDC1-expressing cells (Control) are higher than cells without PLXDC1, consistent promotor activation by the ectopic expression of the receptor without ligands.
By linking its promotor to a luciferase reporter gene, this example developed a PLXDC1 receptor activation assay.

CCCCCCCCCCCCCCOc1ccc(S(=O)(=O)c2cnc3ccc([S+](C)[O-])cc3c2N2CCC(N3CCC(N4CCN(C)CC4)CC3)CC2)cc1 (centres unmarked) [Compound 346]
Tumor growth / shrinkage (tumor blood vessels): shrank the tumors significantly | Gfi1b promotor activity in PLXDC1-expressing cells (PLXDC1): highly activated the promotor activity
